# Reference: patent EP0059983B1, “Substituted biphenyl compounds for use as a medicament” (THE WELLCOME FOUNDATION LIMITED, priority 1981, dated 1982)
# What was measured:
# [1] = system: hypercholesterolemic male rat; assay: Inhibition of dietary induced hypercholesterolemia in male rats (serum lipids); format: in vivo; set-up: key to Cholesterol lowering / Triglyceride lowering: In = Inactive at dose tested; A = Activity> clofibrate; M = Activity≤ clofibrate; settings: for Cholesterol lowering / Triglyceride lowering: rats, efficacy compared to clofibrate, dose not given; for % change in serum from control HDL: HDL cholesterol; for % change in serum from control HDL / % change in serum from control VLDL & LDL / % change in serum from control Cholesterol / % change in serum from control Triglyceride: male rats, oral; for % change in serum from control VLDL & LDL: VLDL & LDL cholesterol (difference between total and HDL cholesterol); for % change in serum from control Cholesterol / % change in serum from control Triglyceride: twice daily 3 days and once on day 4
# Method: Hypercholesterolemia was produced in male rats after 3 days in a diet of 0.4% cholesterol and 0.2% sodium cholate. Each group contained 4 rats. Compounds tested were given orally twice daily for 3 days and once on day 4. Control animals received the vehicle, methyl cellulose. The cholesterol-containing diet and compound treatment were started at the same time. Animals were bled before dietary and compound treatment and 3 hr after the last dose of compound on day 4. All bleedings were after a 4 hr fast. Total serum cholesterol, triglyceride and high density lipoprotein (HDL) cholesterol determined by the procedure and test kit supplied by Dow Diagnostics (Trademark of the Dow Chemical Co. Laboratories, Indianapolis, IN). Very low and low density lipoprotein (VLDL & LDL) cholesterol were determined by the difference between total and HDL cholesterol.
# By the method of Example 5 various compounds of formula (IA) were assessed for their ability to reduce cholesterol and triglyceride levels in rats. The compounds were compared in efficacy to clofibrate.
# rats = assay: Oral toxicity in rats; format: in vivo; settings: oral administration to rats at upto 1 g/kg bodyweight
smiles,measurement,setting,value
"O=C(O)c1ccccc1-c1ccc(F)cc1 [F, 2-(4-Fluorophenyl)-benzoic acid]",Cholesterol lowering,[1],In
same,Triglyceride lowering,[1],M
"CCc1ccc(-c2ccccc2C(=O)O)cc1 [Example C2H5, 2-(4-Ethylphenyl)-benzoic acid]",Cholesterol lowering,[1],A
same,Triglyceride lowering,[1],A
"Cc1ccc(-c2ccccc2C(=O)O)cc1 [CH3, 2-(4-Methylphenyl)-benzoic acid]",Cholesterol lowering,[1],M
same,Triglyceride lowering,[1],M
"CCCCc1ccc(-c2ccccc2C(=O)O)cc1 [n C4H9, 2-(4-n-butylphenyl)benzoic acid]",Cholesterol lowering,[1],A
same,Triglyceride lowering,[1],A
"CCOC(=O)C(C)(C)Oc1ccc(Cl)cc1 [Clofibrate, reference compound]",% change in serum from control HDL,[1]; dose 100 mg/kg/day,−21%
same,% change in serum from control HDL,[1]; dose 200 mg/kg/day,−28%
same,% change in serum from control VLDL & LDL,[1]; dose 100 mg/kg/day,0%
same,% change in serum from control VLDL & LDL,[1]; dose 200 mg/kg/day,−29%
same,% change in serum from control Cholesterol,[1]; dose 25 mg/kg/day,0%
same,% change in serum from control Triglyceride,[1]; dose 25 mg/kg/day,0%
same,% change in serum from control Cholesterol,[1]; dose 50 mg/kg/day,0%
same,% change in serum from control Triglyceride,[1]; dose 50 mg/kg/day,−31%
same,% change in serum from control Cholesterol,[1]; dose 100 mg/kg/day,0%
same,% change in serum from control Triglyceride,[1]; dose 100 mg/kg/day,−33%
same,% change in serum from control Cholesterol,[1]; dose 200 mg/kg/day,−28%
same,% change in serum from control Triglyceride,[1]; dose 200 mg/kg/day,−40%
"CC(C)c1ccc(-c2ccccc2C(=O)O)cc1 [I C3H7, 2-(4-isoPropylphenyl)-benzoic acid]",Cholesterol lowering,[1],A
same,Triglyceride lowering,[1],A
"O=C(O)c1ccccc1-c1ccc(C(F)(F)F)cc1 [IA(R=CF3), 2-(4-trifluoromethylphenyl)benzoic acid]",% change in serum from control HDL,[1]; dose 25 mg/kg/day,−6%
same,% change in serum from control HDL,[1]; dose 50 mg/kg/day,+10%
same,% change in serum from control HDL,[1]; dose 150 mg/kg/day,−15%
same,% change in serum from control VLDL & LDL,[1]; dose 25 mg/kg/day,−46%
same,% change in serum from control VLDL & LDL,[1]; dose 50 mg/kg/day,−64%
same,% change in serum from control VLDL & LDL,[1]; dose 150 mg/kg/day,−52%
same,% change in serum from control Cholesterol,[1]; dose 25 mg/kg/day,−40%
same,% change in serum from control Triglyceride,[1]; dose 25 mg/kg/day,−43%
same,% change in serum from control Cholesterol,[1]; dose 50 mg/kg/day,−56%
same,% change in serum from control Triglyceride,[1]; dose 50 mg/kg/day,−53%
same,% change in serum from control Cholesterol,[1]; dose 100 mg/kg/day,−51%
same,% change in serum from control Triglyceride,[1]; dose 100 mg/kg/day,−57%
same,% change in serum from control Cholesterol,[1]; dose 150 mg/kg/day,−40%
same,% change in serum from control Triglyceride,[1]; dose 150 mg/kg/day,−60%
same,Cholesterol lowering,[1],A
same,Triglyceride lowering,[1],A
same,deaths,rats,no deaths were observed
"O=C(O)c1ccccc1-c1ccc(Cl)cc1 [Cl, 2-(4-Chlorophenyl)-benzoic acid]",Cholesterol lowering,[1],M
same,Triglyceride lowering,[1],In
"COc1ccc(-c2ccccc2C(=O)O)cc1 [OCH3, 2-(4-Methoxyphenyl)-benzoic acid]",Cholesterol lowering,[1],M
same,Triglyceride lowering,[1],A
"CC(C)(C)c1ccc(-c2ccccc2C(=O)O)cc1 [t C4H9, 2-(4-t-Butylphenyl)-benzoic acid]",Cholesterol lowering,[1],M
same,Triglyceride lowering,[1],A
